According to patent US8399383B2, “Protein chips for high throughput screening of protein activity” (Yale University, priority 2000, dated 2013):
“Also recorded” adds a separate entry of the source.

Biological target: human protein kinase A (PKA) (Homo sapiens, UniProt P17612)
Test: Kinase/inhibitor assay on protein chip (33P-γ-ATP phosphorylation)
Format: biochemical
Settings: peptide and MBP substrates; different concentrations of inhibitor; FIG. 7
Method: Substrates were bound to the surface of the GPTS-treated microwells on the protein chip at room temperature for one hour, then blocked with 1% BSA and 100 mM Tris pH 7.5, and washed three times with TBS buffer. Kinases and different concentrations of kinase inhibitors were added to the microwells in the presence of ^33P-γ-ATP. The phosphorylation reaction was carried out at 30° C. for thirty minutes. After completion of the reaction, the protein chip was washed extensively with TBS buffer at room temperature, and then allowed to dry. Phosphorylation signals were obtained by exposing the protein chip to either X-ray film or a phosphoimager.
A human protein kinase A (PKA), a human map kinase (MAPK), three yeast PKA homologs (TPK1, TPK2 and TPK3), and two other yeast protein kinases (HSL1 and RCK1) were tested against two substrates (i.e., a protein substrate for PKA and a commonly used kinase substrate, MBP) using different concentrations of PKIA (a specific human PKA inhibitor) or SB202190 (a MAPK inhibitor).

Structure (SMILES): Oc1ccc(-c2nc(-c3ccncc3)c(-c3ccc(F)cc3)[nH]2)cc1 [SB202190]
- inhibition of PKA activity: did not inhibit; also recorded: did not show any inhibitory effect
